# In patent publication US20040063662A1, “Selenophene anti-tumor agents” (priority 1996, published 2004):
# Key:
# MDA-MB-231/ATCC = test: NCI human tumor cell panel: MDA-MB-231/ATCC (Breast Cancer); assay type: cell-based; conditions: Homo sapiens, MDA-MB-231, MDA-MB-231/ATCC, Breast Cancer
# SK-OV-3 = test: NCI human tumor cell panel: SK-OV-3 (Ovarian Cancer); assay type: cell-based; conditions: SK-OV-3, Ovarian Cancer
# A498 = test: NCI human tumor cell panel: A498 (Renal Cancer); assay type: cell-based; conditions: A498, Renal Cancer
# EKVX = test: NCI human tumor cell panel: EKVX (Non-Small Cell Lung Cancer); assay type: cell-based; conditions: Non-Small Cell Lung Cancer
# NCI-H23 = test: NCI human tumor cell panel: NCI-H23 (Non-Small Cell Lung Cancer); assay type: cell-based; conditions: NCI-H23, Non-Small Cell Lung Cancer
# RXF-393 = test: NCI human tumor cell panel: RXF-393 (Renal Cancer); assay type: cell-based; conditions: RXF-393, Renal Cancer
# OVCAR-4 = test: NCI human tumor cell panel: OVCAR-4 (Ovarian Cancer); assay type: cell-based; conditions: OVCAR-4, Ovarian Cancer, read-out: Log10 TGI (converted)
# HT29 = test: NCI human tumor cell panel: HT29 (Colon Cancer); assay type: cell-based; conditions: HT-29, HT29, Colon Cancer
# NCI-H226 = test: NCI human tumor cell panel: NCI-H226 (Non-Small Cell Lung Cancer); assay type: cell-based; conditions: NCI-H226, Non-Small Cell Lung Cancer
# T-47D = test: NCI human tumor cell panel: T-47D (Breast Cancer); assay type: cell-based; conditions: T47D, Breast Cancer
# SW-620 = test: NCI human tumor cell panel: SW-620 (Colon Cancer); assay type: cell-based; conditions: SW-620, Colon Cancer
# SN12C = test: NCI human tumor cell panel: SN12C (Renal Cancer); assay type: cell-based; conditions: Renal Cancer
# MALME-3M = test: NCI human tumor cell panel: MALME-3M (Melanoma); assay type: cell-based; conditions: MALME-3M, Melanoma
# OVCAR-5 = test: NCI human tumor cell panel: OVCAR-5 (Ovarian Cancer); assay type: cell-based; conditions: OVCAR-5, Ovarian Cancer
# UACC-62 = test: NCI human tumor cell panel: UACC-62 (Melanoma); assay type: cell-based; conditions: UACC-62, Melanoma
# KM12 = test: NCI human tumor cell panel: KM12 (Colon Cancer); assay type: cell-based; conditions: KM12, Colon Cancer
# NCI-H522 = test: NCI human tumor cell panel: NCI-H522 (Non-Small Cell Lung Cancer)
# SF-268 = test: NCI human tumor cell panel: SF-268 (CNS Cancer); assay type: cell-based; conditions: SF-268, CNS Cancer
# SK-MEL-28 = test: NCI human tumor cell panel: SK-MEL-28 (Melanoma); assay type: cell-based; conditions: SK-MEL-28, Melanoma
# HL-60(TB) = test: NCI human tumor cell panel: HL-60(TB) (Leukemia); assay type: cell-based; conditions: Leukemia, read-out: Log10 GI50 (converted)
# HCT-15 = test: NCI human tumor cell panel: HCT-15 (Colon Cancer); assay type: cell-based; conditions: HCT-15, Colon Cancer
# COLO 205 = test: NCI human tumor cell panel: COLO 205 (Colon Cancer); assay type: cell-based; conditions: COLO 205, Colon Cancer
# SR = test: NCI human tumor cell panel: SR (Leukemia); assay type: cell-based; conditions: Leukemia
# NCI-H322M = test: cells; assay type: cell-based; conditions: Homo sapiens, Non-Small Cell Lung Cancer
# HOP-62 = test: NCI human tumor cell panel: HOP-62 (Non-Small Cell Lung Cancer); assay type: cell-based; conditions: HOP-62, Non-Small Cell Lung Cancer
# CAKI-1 = test: NCI human tumor cell panel: CAKI-1 (Renal Cancer); assay type: cell-based; conditions: CAKI-1, Renal Cancer
# SF-539 = test: NCI human tumor cell panel: SF-539 (CNS Cancer); assay type: cell-based; conditions: SF-539, CNS Cancer
# SK-MEL-2 = test: NCI human tumor cell panel: SK-MEL-2 (Melanoma); assay type: cell-based; conditions: SK-MEL-2, Melanoma
# [1] = read-out: Log10 GI50 (converted)
# [2] = read-out: Log10 TGI (converted)
smiles,measurement,setting,value
O=Cc1ccc(-c2ccc(-c3ccc(C=O)s3)[se]2)s1 [NSC 675345],GI50,MDA-MB-231/ATCC; [1],18.2 µM
same,IC (TGI),MDA-MB-231/ATCC; [2],> 100 µM
same,GI50,SK-OV-3; [1],55 µM
same,IC (TGI),SK-OV-3; [2],> 100 µM
same,GI50,A498; [1],0.479 µM
same,IC (TGI),A498; [2],1.55 µM
same,GI50,EKVX; [1],> 100 µM
same,IC (TGI),EKVX; [2],> 100 µM
same,GI50,NCI-H23; [1],21.9 µM
same,IC (TGI),NCI-H23; [2],> 100 µM
same,GI50,RXF-393; [1],> 100 µM
same,IC (TGI),RXF-393; [2],> 100 µM
same,IC (TGI),OVCAR-4,> 100 µM
same,GI50,HT29; [1],> 100 µM
same,IC (TGI),HT29; [2],> 100 µM
same,GI50,NCI-H226; [1],0.575 µM
same,IC (TGI),NCI-H226; [2],2.45 µM
same,GI50,T-47D; [1],79.4 µM
same,IC (TGI),T-47D; [2],> 100 µM
same,GI50,SW-620; [1],38 µM
same,IC (TGI),SW-620; [2],> 100 µM
same,GI50,SN12C; [1],0.257 µM
same,IC (TGI),SN12C; [2],1.66 µM
same,GI50,MALME-3M; [1],> 100 µM
same,IC (TGI),MALME-3M; [2],> 100 µM
same,GI50,OVCAR-5; [1],1.55 µM
same,IC (TGI),OVCAR-5; [2],5.37 µM
same,GI50,UACC-62; [1],0.347 µM
same,IC (TGI),UACC-62; [2],2.82 µM
same,GI50,KM12; [1],> 100 µM
same,IC (TGI),KM12; [2],> 100 µM
same,GI50,"NCI-H522; NCI-H522, read-out: Log10 GI50 (converted)",85.1 µM
same,IC (TGI),"NCI-H522; NCI-H522, read-out: Log10 TGI",> 100 µM
same,GI50,SF-268; [1],> 100 µM
same,IC (TGI),SF-268; [2],> 100 µM
same,GI50,SK-MEL-28; [1],> 100 µM
same,IC (TGI),SK-MEL-28; [2],> 100 µM
same,GI50,HL-60(TB),> 100 µM
same,GI50,HCT-15; [1],> 100 µM
same,IC (TGI),HCT-15; [2],> 100 µM
same,GI50,COLO 205; [1],33.9 µM
same,IC (TGI),COLO 205; [2],> 100 µM
same,GI50,SR; [1],> 100 µM
same,IC (TGI),SR; [2],> 100 µM
same,GI50,NCI-H322M; [1],> 100 µM
same,IC (TGI),NCI-H322M; [2],> 100 µM
same,GI50,HOP-62; [1],47.9 µM
same,IC (TGI),HOP-62; [2],> 100 µM
same,GI50,CAKI-1; [1],32.4 µM
same,IC (TGI),CAKI-1; [2],> 100 µM
same,GI50,SF-539; [1],> 100 µM
same,IC (TGI),SF-539; [2],> 100 µM
same,GI50,SK-MEL-2; [1],77.6 µM
same,IC (TGI),SK-MEL-2; [2],> 100 µM
